Laboratory results from patent publication US6825354B2 (Wyeth Holdings Corporation, priority 1999, dated 2004).
pIC50: −log10 of the molar value. Where a name gives a salt, the structure may show the parent alone.

Target: T1, MMP-1 (Homo sapiens, UniProt P03956)
T1 sequence (P03956 100-469): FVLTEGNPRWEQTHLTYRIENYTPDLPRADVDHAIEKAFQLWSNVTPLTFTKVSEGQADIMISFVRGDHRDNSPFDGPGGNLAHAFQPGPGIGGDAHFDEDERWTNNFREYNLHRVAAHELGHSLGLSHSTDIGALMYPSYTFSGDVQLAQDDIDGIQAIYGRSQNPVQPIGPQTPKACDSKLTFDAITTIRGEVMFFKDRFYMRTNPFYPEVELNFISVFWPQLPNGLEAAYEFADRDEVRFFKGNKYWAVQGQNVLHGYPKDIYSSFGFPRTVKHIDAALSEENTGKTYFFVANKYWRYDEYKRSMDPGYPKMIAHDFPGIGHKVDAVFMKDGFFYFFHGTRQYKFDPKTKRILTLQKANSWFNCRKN
Test: MMP-1 inhibition, thiopeptide or fluorescent peptide substrate
Assay type: biochemical
Details: Table 1, first part; read-out: MMP1 IC50
Experimental: The enzyme activity is measured by the rate of the color increase. The thiopeptide substrate is made up fresh as a 20 mM stock in 100% DMSO and the DTNB is dissolved in 100% DMSO as a 100 mM stock and stored in the dark at room temperature. Both the substrate and DTNB are diluted together to 1 mM with substrate buffer (50 mM HEPES pH 7.5, 5 mM CaCl2) before use. The stock of enzyme is diluted with buffer (50 mM HEPES, pH 7.5, 5 mM CaC12, 0.02% Brij) to the desired final concentration.
Alternatively, a fluorescent peptide substrate is used. In this test procedure, the peptide substrate contains a fluorescent group and a quenching group. Upon cleavage of the substrate by an MMP, the fluorescence that is generated is quantitated on the fluorescence plate reader. The assay is run in HCBC assay buffer (50 mM HEPES, pH 7.0, 5 mM Ca^+2, 0.02% Brij, 0.5% Cysteine), with human recombinant MMP-1, MMP-9, or MMP-13. The substrate is dissolved in methanol and stored frozen in 1 mM aliquots. For the assay, substrate and enzymes are diluted in HCBC buffer to the desired concentrations. Compounds are added to the 96 well plate containing enzyme and the reaction is started by the addition of substrate.
For either the thiopeptide or fluorescent peptide test procedures, the slope of the line is calculated and represents the reaction rate. […] The mean (x±sem) of the control rate is calculated and compared for statistical significance (p<0.05) with drug-treated rates using Dunnett's multiple comparison test.

pIC50	Compound
5.40	Quinoline-3-carboxylic Acid [5-(4-but-2-ynyloxy-benzenesulfinyl)-5-hydroxycarbamoyl-pentyl]-amide [Example 53]
5.34	2-(4-But-2-ynyloxy-benzenesulfinyl)-6-[2-(3,4-dichloro-phenyl)-acetylamino]-hexanoic acid hydroxyamide [Example 57]
5.34	2-(4-But-2-ynyloxy-benzenesulfinyl)-6-(4-thiophen-2-yl-butyrylamino)-hexanoic acid hydroxyamide [Example 58]
5.47	9H-Xanthene-9-carboxylic acid [5-(4-but-2-ynyloxy-benzenesulfinyl)-5-hydroxycarbamoyl-pentyl]-amide [Example 59]
5.41	N-[5-(4-But-2-ynyloxy-benzenesulfinyl)-5-hydroxycarbamoyl-pentyl]-2-phenethyl-benzamide [Example 56]

Compound	pIC50
1-Methyl-1H-pyrrole-2-carboxylic acid {[5-(4-but-2-ynyloxy-benzenesulfinyl)-5-hydroxy-carbamoylpentyl-carbamoyl]-methyl}-amide [Example 61]	5.25

Target: TNF-α converting enzyme (TACE) (Homo sapiens, UniProt P78536)
Test: TACE inhibition, fluorescent peptidyl substrate
Assay type: biochemical
Details: not given
Experimental: […] The reaction is initiated by addition of a fluorescent peptidyl substrate (final concentration 100 μM) to each well and then shaking on a shaker for 5 sec.
The reaction is read (excitation 340 nm, emission 420 nm) for 10 min. and the increase in fluorescence over time is plotted as a linear line. The slope of the line is calculated and represents the reaction rate.
The mean (x±sem) of the control rate is calculated and compared for statistical significance (p<0.05) with drug-treated rates using Dunnett's multiple comparison test.

TNF-α converting enzyme (TACE), sequence (P78536 215-824): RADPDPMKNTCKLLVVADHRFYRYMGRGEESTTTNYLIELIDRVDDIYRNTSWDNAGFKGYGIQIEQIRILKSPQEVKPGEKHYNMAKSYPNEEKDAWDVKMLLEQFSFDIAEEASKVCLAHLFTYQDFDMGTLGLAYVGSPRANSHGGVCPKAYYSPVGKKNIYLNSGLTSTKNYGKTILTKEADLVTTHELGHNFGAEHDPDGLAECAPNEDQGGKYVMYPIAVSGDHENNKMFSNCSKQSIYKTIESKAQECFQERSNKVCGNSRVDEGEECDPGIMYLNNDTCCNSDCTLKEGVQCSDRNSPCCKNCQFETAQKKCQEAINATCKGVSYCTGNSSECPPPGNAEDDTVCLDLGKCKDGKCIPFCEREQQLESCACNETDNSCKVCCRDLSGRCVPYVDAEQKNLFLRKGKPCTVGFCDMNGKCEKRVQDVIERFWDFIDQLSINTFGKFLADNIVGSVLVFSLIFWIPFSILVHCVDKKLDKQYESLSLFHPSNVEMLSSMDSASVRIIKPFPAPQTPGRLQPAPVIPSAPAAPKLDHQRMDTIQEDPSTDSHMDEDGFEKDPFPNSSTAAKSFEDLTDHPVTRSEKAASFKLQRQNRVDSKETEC

pIC50	Compound
7.75	CC#CCOc1ccc([S+]([O-])[C@H](C(=O)NO)c2ccc(OC)cc2)cc1 (single isomer, unassigned) [Example 78]

Same assay, conditions: Table 1, first part; read-out: TACE IC50

pIC50	Compound
7.49	CC#CCOc1ccc(SC(CCCCNC(=O)CNC(=O)Cc2ccc(Cl)c(Cl)c2)C(=O)NO)cc1 (stereo not drawn) [Example 43, 2-(4-but-2-ynyloxy-phenylsulfanyl)-6-{2-[2-(3,4-dichloro-phenyl)-acetylamino]-acetylamino}-hexanoic acid hydroxyamide]
7.70	2-(4-But-2-ynyloxy-benzenesulfinyl)-6-(4-thiophen-2-yl-butyrylamino)-hexanoic acid hydroxyamide [Example 58]
7.28	CC#CCOc1ccc(S(=O)(=O)C(CCCCNC(=O)CNC(=O)Cc2ccc(Cl)c(Cl)c2)C(=O)NO)cc1 (stereo not drawn) [Example 65, 2-(4-But-2-ynyloxy-benzenesulfonyl)-6-{2-[2-(3,4-dichloro-phenyl)-acetylamino]-acetylamino}-hexanoic acid hydroxyamide]
7.36	CC#CCOc1ccc(S(=O)(=O)C(CCCCNC(=O)Cc2ccc(Cl)c(Cl)c2)C(=O)NO)cc1 (stereo not drawn) [Example 37, 2-(4-But-2-ynyloxy-benzenesulfonyl)-6-[2-(3,4-dichloro-phenyl)-acetylamino]-hexanoic acid hydroxyamide]
7.55	CC#CCOc1ccc([S+]([O-])C(CCCCNC(=O)c2nccc3ccccc23)C(=O)NO)cc1 (stereo not drawn) [Example 31, Isoquinoline-1-carboxylic acid [5-(4-but-2-ynyloxy-benzenesulfinyl)-5-hydroxycarbamoyl-pentyl]-amide]

Continued, compound first:

Compound	pIC50
N-[5-(4-But-2-ynyloxy-phenylsulfanyl)-5-hydroxycarbamoyl-pentyl]-2-phenethyl-benzamide [Example 15]	6.86
Quinoline-3-carboxylic Acid [5-(4-but-2-ynyloxy-benzenesulfinyl)-5-hydroxycarbamoyl-pentyl]-amide [Example 53]	7.82
1-Methyl-1H-pyrrole-2-carboxylic acid {[5-(4-but-2-ynyloxy-benzenesulfinyl)-5-hydroxy-carbamoylpentyl-carbamoyl]-methyl}-amide [Example 61]	7.65
2-(4-But-2-ynyloxy-benzenesulfinyl)-6-[2-(3,4-dichloro-phenyl)-acetylamino]-hexanoic acid hydroxyamide [Example 57]	7.61
9H-Xanthene-9-carboxylic acid [5-(4-but-2-ynyloxy-benzenesulfinyl)-5-hydroxycarbamoyl-pentyl]-amide [Example 59]	7.65
2-(4-But-2-ynyloxy-benzenesulfinyl)-6-[2-(1,3-dioxo-1,3-dihydro-isoindol-2-yl)-acetylamino]-hexanoic acid hydroxyamide [Example 55]	7.41
N-[5-(4-But-2-ynyloxy-benzenesulfinyl)-5-hydroxycarbamoyl-pentyl]-2-phenethyl-benzamide [Example 56]	7.66
N-{[5-(4-But-2-ynyloxy-phenylsulfanyl)-5-hydroxy-carbamoyl-pentylcarbamoyl]-methyl}-2-phenethyl-benzamide [Example 46]	7.07
Quinoline-2-carboxylic acid [5-(4-but-2-ynyloxy-benzenesulfinyl)-5-hydroxycarbamoyl-pentyl]-amide [Example 54]	7.57

Same assay, conditions: Table 1, second part; footnote a: % @ 10 μM

TACE % @ 10 μM [%]	Compound
48	CC#CCOc1ccc(S(=O)(=O)C(C(=O)NO)c2ccc(-c3cccs3)cc2)cc1 (stereo not drawn) [Example 91, 2-{[4-(2-butynyloxy)phenyl]sulfonyl}-N-hydroxy-2-[4-(2-thienyl)phenyl]acetamide]
40.90	CC#CCOc1ccc(SC(C(=O)NO)c2ccc3ccccc3c2)cc1 (stereo not drawn) [Example 114, 2-{[4-(2-Butynyloxy)phenyl]sulfanyl}-2-(2-naphthyl)-N-hydroxyacetamide]

Same assay, conditions: Table 1, second part; footnote a: IC50 (nM); read-out: TACE IC50

IC50 [nM]	Compound
682	CC#CCOc1ccc([S+]([O-])[C@@H](C(=O)NO)c2ccc(-c3cccs3)cc2)cc1 (stereo partly drawn) [Example 90, (2R)-2-{[4-(2-butynyloxy)phenyl]sulfinyl}-N-hydroxy-2-[4-(2-thienyl)phenyl]ethanamide]
108	CC#CCOc1ccc(SC(C(=O)NO)c2ccc(F)cc2)cc1 (stereo not drawn) [Example 95]

Test system: not given
Test: not given
Details: not given

melting point [°C]	Compound
175 to 177	CC#CCOc1ccc(S(=O)(=O)C(C(=O)NO)C2CCSCC2)cc1 (stereo not drawn) [Example 123, 2-{[4-(2-Butynyloxy)phenyl]sulfonyl}-N-hydroxy-2-tetrahydro-2H-thiopyran-4yl-acetamide]
103	CC#CCOc1ccc(S(=O)(=O)C(C(=O)NO)C2CCN(C(C)=O)CC2)cc1 (stereo not drawn) [Example 121, 2-(1-acetyl-4-piperidinyl)-2-{[4-(2-butynyloxy)phenyl]sulfonyl}-N-hydroxyacetamide]
116 to 118	CC#CCOc1ccc(OCCC(=O)NO)cc1 [Example 9, 3-(4-But-2-ynyloxy-phenoxy)-N-hydroxy-propionamide]
130 to 132	CC#CCOc1ccc(OCC(=O)NO)cc1 [Example 11, 2-(4-But-2-ynyloxy-phenoxy)-N-hydroxy-acetamide]
123 to 125	CC#CCOc1ccc(OCCCC(=O)NO)cc1 [Example 10, 4-(4-But-2-ynyloxy-phenoxy)-N-hydroxy-butyramide]

More lines, now with the values behind:

Compound	melting point [°C]
CC#CCOc1ccc(SC(C)C(=O)NO)cc1 (stereo not drawn) [Example 4, 2-(4-Buty-2-ynyloxy-phenylsulfanyl)-N-hydroxy-propionamide]	102 to 104
CC#CCOc1ccc(S(=O)(=O)C(C)(Cc2ccc(OCCN3CCCCC3)cc2)C(=O)NO)cc1 (stereo not drawn) (as salt: hydrochloride) [Example 1, 2-(4-But-2-ynyloxy-benzenesulfonyl)-N-hydroxy-2-methyl-3-[4-(2-piperidin-1-yl-ethoxy)-phenyl]-propionamide]	114 to 116
CC#CCOc1ccc(S(=O)(=O)C(C)(Cc2ccc(-c3ccccc3)cc2)C(=O)NO)cc1 (stereo not drawn) [Example 2, 3-Biphenyl-4-yl-2-(4-Buty-2-ynyloxy-phenylsulfonyl)-N-hydroxy-2-methyl-propionamide]	92 to 94
CC#CCOc1ccc([S@@+]([O-])[C@@H](CCCCCC)C(=O)NO)cc1 [Example 8, (S)-2-[(S)-[4-(2-Butynyloxy)phenylsulfinyl)]-N-hydroxyoctanamide]	112.2
CC#CCOc1ccc(S(=O)(=O)C(C)(Cc2cccnc2)C(=O)NO)cc1 (stereo not drawn) (as salt: hydrochloride) [Example 3, 2-(4Buty-2-ynyloxy-phenylsulfonyl)-N-hydroxy-2-methyl-3-pyridin-3-ylpropionamide]	154 to 156
CC#CCOc1ccc(SC(CCCCCC)C(=O)NO)cc1 (stereo not drawn) [Example 6, 2-(4-But-2-ynyloxy-phenylsulfanyl)-octanoic Acid Hydroxamide]	125
